Experimental data taken from ChEMBL document CHEMBL1201862, “PubChem BioAssay data set” (2004).
The source made the active and inactive calls.

Columns and labels:
[1] = viability of uninfected HEp-2 cells – cell-based, HTS, cytotoxicity control for RSV inhibitor project, dose response (AID 2410); format: functional; details: human respiratory syncytial virus
BJ = test: cells; format: functional, cell-based; details: Homo sapiens
Cytochrome P450 1A2 = biological target: T1, Cytochrome P450 1A2 (Homo sapiens, UniProt P05177);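 note: PubChem cytochrome P450 panel assay, CYP1A2 panel member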
T1 sequence (P05177 whole entry): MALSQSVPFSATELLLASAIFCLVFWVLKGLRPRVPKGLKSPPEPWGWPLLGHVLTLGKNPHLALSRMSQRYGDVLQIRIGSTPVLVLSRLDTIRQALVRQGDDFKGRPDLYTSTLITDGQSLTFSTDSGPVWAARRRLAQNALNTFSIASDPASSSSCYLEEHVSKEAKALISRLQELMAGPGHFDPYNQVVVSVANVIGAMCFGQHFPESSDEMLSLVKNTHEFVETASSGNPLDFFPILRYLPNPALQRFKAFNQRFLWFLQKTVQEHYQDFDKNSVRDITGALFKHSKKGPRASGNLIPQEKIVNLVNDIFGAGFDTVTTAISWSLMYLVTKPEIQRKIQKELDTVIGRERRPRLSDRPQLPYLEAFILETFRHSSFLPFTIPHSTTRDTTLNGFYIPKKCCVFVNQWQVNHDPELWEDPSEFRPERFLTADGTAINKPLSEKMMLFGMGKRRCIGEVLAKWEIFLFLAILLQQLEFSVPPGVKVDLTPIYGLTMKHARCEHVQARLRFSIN

In the case of `CCc1nnc(NS(=O)(=O)c2ccc(NC(=S)NC(=O)/C=C/c3ccc(C(C)C)cc3)cc2)s1`, the CC50 [1] is reported as 17.2 µM (active).
For `O=C(/C=C/c1ccco1)Nc1ccc(Oc2ccccc2)cc1`, the EC50 (BJ) was 21.2 µM (active) and the AC50 (Cytochrome P450 1A2) was 20 µM (inconclusive).
